From US9351982B2, “Krill oil and reacted astaxanthin composition and associated method” (U.S. Nutraceuticals, LLC, priority 2009, dated 2016)

Experiments:
[1] = system: C-Reactive Protein (C-RP); details: cited from earlier work
lipid peroxidation = details: relative to alpha-tocopherol; in vitro and in vivo studies; cited from earlier work
lens epithelial cells = details: in vitro, at umol/L concentrations; cited from earlier work
[2] = system: pro-oxidant activity of Vioxx; details: in vitro; cited from earlier work
[3] = cited from earlier work
[4] = cited from earlier work; remark: listed apart in the source
[5] = eight weeks of supplementation at 6 mg per day; cited from earlier work
[6] = system: LDL cholesterol oxidation; details: cited from earlier work
[7] = Stability of carotenoids blended with krill oil, UV analysis; assay type: physicochemical
From the text: Testing has determined that astaxanthin added to krill oil results in an unstable product with respect to recoverable astaxanthin by HPLC analysis. A chemical reaction most likely takes place between krill oil and at least astaxanthin in such mixtures. […] Had UV alone been used to determine product stability the decrease in recoverable astaxanthin over time would not have been observed. The test results, tables and charts of FIGS. 2-6 show the decrease in recoverable astaxanthin over time.
FIG. 2 is a chart showing data of astaxanthin at 13 days post formulation reacting with krill oil, but essentially neither lutein nor zeaxanthin. Astaxanthin is a keto-alcohol while lutein and zeaxanthin are alcohols and this can possibly make some difference. It should also be understood that the krill oil and “reacted” carotenoids, such as astaxanthin, and possibly zeaxanthin and lutein, lose their ability to be recovered over time from the mixture but can still be quantitated by ultraviolet (UV) analysis. For example, the chromophores of the carotenoids are not destroyed when the reaction takes place over time and can be used to develop a number of products useful for cardiovascular applications, joint health care applications, eye care and other diseases.
Referring now to the chart in FIG. 2, there are shown various samples and explanation. […]

## CC1=C(/C=C/C(C)=C/C=C/C(C)=C/C=C/C=C(C)/C=C/C=C(C)/C=C/C2=C(C)C(=O)[C@@H](O)CC2(C)C)C(C)(C)C[C@H](O)C1=O [astaxanthin]
[1]; 4 mg for eight weeks
  decrease in C-reactive protein scores: 21%
[1]; human subjects with high risk levels of C-RP, three months of treatment
  drop in serum C-RP levels: 43%
Lipid peroxidation
  mean effective concentration which inhibits lipid peroxidation, times lower than that of alpha-tocopherol: 500 times
Lens epithelial cells
  suppression of UVB induced lipid per-oxidative mediated cell damage: suppresses UVB induced lipid per-oxidative mediated cell damage
[2]
  negation of pro-oxidant activity of Vioxx: negate the pro-oxidant activity of Vioxx
[3]; relative to alpha-tocopherol
  potency in quenching singlet oxygen, times more potent than alpha-tocopherol: 550 times
[3]; relative to beta-carotene
  potency in quenching singlet oxygen, times more potent than beta-carotene: 11 times
[3]; relative to lutein
  potency in quenching singlet oxygen, times more potent than lutein: 27.5 times
[4]; relative to alpha-tocopherol
  potency in scavenging oxygen free radicals, times more potent than alpha-tocopherol: 14 times
[4]; relative to ascorbic acid
  potency in scavenging oxygen free radicals, times more potent than ascorbic acid (Vitamin C): 65 times
[4]; relative to beta-carotene
  potency in scavenging oxygen free radicals, times more potent than beta-carotene: 54 times
[5]
  negative effect in healthy adults: no negative effect
[6]; 3.6 mg per day for two weeks
  protection of LDL cholesterol against induced in vitro oxidation: protects LDL cholesterol against induced in vitro oxidation
[6]; 4 mg per day for two weeks
  reduction of LDL cholesterol oxidation: 26%
[7]
  UV quantification of the amount of astaxanthin added to blended product: ~100%
